Structures can show the parent of a compound that is named as a salt. ± gives the standard error.
Experiments:
621-102 (TSC2-deficient) = test: relative viability vs DMSO; higher = less cytotoxic; conditions: serum: 10% FBS, 72 h
621-103 (TSC2-rescued) = test: as above; conditions: serum: 10% FBS, 72 h
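Further: immortalized renal angiomyolipoma cells stably carrying empty vector or TSC2, dosed in 384-well plates in DMEM, viability normalized to vehicle-treated wells within each plate.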

Row | SMILES | relative viability (621-102 (TSC2-deficient); 0.0001 µM) | relative viability (621-102 (TSC2-deficient); 0.001 µM) | relative viability (621-102 (TSC2-deficient); 0.01 µM) | relative viability (621-102 (TSC2-deficient); 0.1 µM) | relative viability (621-102 (TSC2-deficient); 1 µM) | relative viability (621-102 (TSC2-deficient); 10 µM) | relative viability (621-103 (TSC2-rescued); 0.0001 µM) | relative viability (621-103 (TSC2-rescued); 0.001 µM) | relative viability (621-103 (TSC2-rescued); 0.01 µM) | relative viability (621-103 (TSC2-rescued); 0.1 µM) | relative viability (621-103 (TSC2-rescued); 1 µM) | relative viability (621-103 (TSC2-rescued); 10 µM)
1 | Cn1cnc2c(F)c(Nc3ccc(Br)cc3Cl)c(C(=O)NOCCO)cc21 [AZD6244 (Selumetinib)] | 84 ± 9.2% | 89.89 ± 0.22% | 96.8 ± 1.1% | 98.9 ± 5.4% | 84.7 ± 1.2% | 88.21 ± 0.5% | 101.6 ± 0.39% | 100.1 ± 0.89% | 105.2 ± 1% | 106 ± 1.1% | 104 ± 2.8% | 89 ± 2.5%
2 | COc1ccc(-c2ccc3c(N4CCOC[C@@H]4C)nc(N4CCOC[C@@H]4C)nc3n2)cc1CO [AZD8055] | 80 ± 3.1% | 86.2 ± 2.7% | 66.51 ± 0.58% | 39.8 ± 0.67% | 21.4 ± 2.2% | 19 ± 0.54% | 90.4 ± 3.3% | 81.1 ± 4.3% | 69 ± 0.95% | 48.4 ± 0.71% | 34.6 ± 0.72% | 34.3 ± 1.4%
3 | Cc1cc(C(=O)NOCCO)c(Nc2ccc(I)cc2F)n(C)c1=O [AZD8330] | 103 ± 1.4% | 102 ± 2.7% | 99.3 ± 1.3% | 96.05 ± 0.59% | 65.9 ± 1.7% | 58.5 ± 0.66% | 101.1 ± 0.99% | 92.9 ± 1.4% | 93.3 ± 1.4% | 93.1 ± 2.1% | 76.3 ± 0.95% | 68.4 ± 0.99%
4 | CNC(=O)CN1CCC(Oc2cc3c(Nc4cccc(Cl)c4F)ncnc3cc2OC)CC1 [AZD8931] | 106 ± 2.5% | 104 ± 3% | 98.4 ± 2% | 96.61 ± 0.73% | 99.6 ± 2.1% | 93.4 ± 4.9% | 102 ± 1.5% | 99.7 ± 2.3% | 101 ± 2.6% | 100.3 ± 0.18% | 99 ± 1.7% | 83.2 ± 3.3%
5 | CC(=O)O[C@H]1CC[C@@]2(C)C(=CC[C@@H]3[C@@H]2CC[C@]2(C)C(c4cccnc4)=CC[C@@H]32)C1 [Abiraterone Acetate (CB7630)] | 103 ± 1.5% | 108 ± 7% | 102 ± 0.7% | 97.3 ± 2.7% | 103 ± 1.2% | 94.6 ± 2.4% | 106 ± 5.8% | 104 ± 3.1% | 111 ± 2.3% | 111 ± 5.3% | 105 ± 2% | 102 ± 3.2%
6 | CC(=O)Nc1ccccc1 [Acetanilide] | 87.9 ± 1.9% | 111 ± 0.29% | 109 ± 2.3% | 92 ± 3% | 113 ± 3.1% | 104 ± 1.7% | 104 ± 1.9% | 102 ± 4.6% | 106.2 ± 0.32% | 101 ± 4.2% | 103 ± 2.6% | 91.3 ± 1.3%
7 | Nc1[nH]cnc2ncnc1-2 [Adenine HCl] | 93.9 ± 2% | 103 ± 0.93% | 97.03 ± 0.37% | 97.386 ± 0.086% | 96.5 ± 6.5% | 110.8 ± 1.1% | 95.5 ± 2.2% | 96.77 ± 0.35% | 92.9 ± 4.8% | 102.9 ± 0.83% | 96.7 ± 2.2% | 120 ± 2.1%
8 | Nc1[nH]cnc2ncnc1-2 [Adenine] | 98 ± 4% | 96.5 ± 2.6% | 100 ± 3% | 97.9 ± 2.6% | 101 ± 2.1% | 112.7 ± 0.18% | 101 ± 3.9% | 98.5 ± 4.1% | 101 ± 1.6% | 97.3 ± 1.1% | 104.9 ± 0.9% | 117 ± 1.5%
9 | COc1cccc2c1C(=O)c1c(O)c3c(c(O)c1C2=O)C[C@@](O)(C(=O)CO)C[C@@H]3O[C@H]1C[C@H](N)[C@H](O)[C@H](C)O1 [Adriamycin] | 102 ± 2% | 93.5 ± 5.5% | 71.1 ± 1.7% | 65.1 ± 2.7% | 17.4 ± 2.1% | 5.59 ± 0.56% | 102.4 ± 0.79% | 103 ± 1.9% | 87.9 ± 3.1% | 60.3 ± 1.4% | 13.01 ± 0.075% | 12 ± 0.24%
